According to patent US20170087174A1, “COMBINATION THERAPY REGIMEN FOR TREATMENT OF HCV” (JANSSEN PHARMACEUTICALS, INC., priority 2015, published 2017):
Where two headings read alike, the source gives them in different places.

Columns and labels:
[1] = Phase 2a open-label combination study: pharmacokinetics (exposure); assay type: in vivo, human; conditions: in vivo
Procedure: A randomized, Phase 2a, open-label study was carried out to evaluate the safety, pharmacokinetics and efficacy of the combination of Compound (III), Odalasvir and Simeprevir in Genotype 1 treatment-naïve subjects with chronic hepatitis C. Other treatment-naïve subjects included Genotype 2, 3, 4, 5 and 6.
The aim of the study was to determine the efficacy, pharmacokinetics (PK), and safety of Compound (III)+Odalasvir±SMV in HCV-infected subjects.
This was an open-label study evaluating various dosing regimens of Compound (III)+Odalasvir±SMV for 6-8 weeks in treatment-naïve HCV-infected subjects with varying clinical characteristics (e.g., GT 1 or 3, presence/absence of compensated Child Pugh A cirrhosis). Efficacy, PK and safety evaluations were conducted during and through 24 weeks post dosing. Up to 15 cohorts were enrolled; data was generated from cohorts that have completed dosing.

[2] = PK of single agents vs fixed dose combinations (FDC), single oral dose in healthy volunteers; assay type: in vivo, human; conditions: for Cmax / AUC(0-t) / AUC(0-inf) / Tmax: human, plasma, oral; for Cmax: read-out: Cmax (mean ± SD); for AUC(0-t): read-out: AUClast (mean ± SD); for AUC(0-inf): read-out: AUC∞ (mean ± SD); for Tmax: read-out: tmax (median [range])
Procedure: SMV (100 mg), ODV (50 mg), and Compound (III) (800 mg) were administered as three different formulations or together as single doses in vivo to healthy volunteers. The arms of the study included: • Arm 1 (Reference Arm): Single oral doses of single agents, one SMV 100-mg capsule, one ODV 50-mg tablet as granule layered solid dispersion with copovidone and poloxamers, and two Compound (III) 400-mg tablets, administered together. • Arm 2: Single oral dose of fixed dose combination (FDC02): SMV 100 mg+ODV 50 mg as a spray dried solid dispersion with HPMC-AS L in a ratio ODV/HPMC-AS L 1/1 w/w+Compound (III) 800 mg • Arm 3: Single oral dose of fixed dose combination (FDC04): SMV 100 mg+ODV 50 mg as a spray dried solid dispersion with HPMC-AS L in a ratio ODV/HPMC-AS L 1/3 w/w+Compound (III) 800 mg • Arm 4: Single oral dose of fixed dose combination (FDC01): SMV 100 mg+ODV 50 mg as a spray dried solid dispersion with copovidone and poloxamers+Compound (III) 800 mg
PK parameters, including Cmax, tmax, AUClast, and AUC∞ were measured for Compound (III), ODV, SMV, and metabolites Compound A-I and Compound A-3 for each Arm of the study. Arms that included fixed dose combinations (FDC) (Arm 2, Arm 3, and Arm 4) were then compared to a single oral dose (Arm 1, the reference Arm). Table 9, Table 10, Table 11, Table 12 and Table 13 display relevant PK parameters and FIG. 9, FIG. 10, FIG. 11, FIG. 12, and FIG. 13 depict the plasma concentration over time of SMV, ODV, Compound A-1, and Compound A-3 for each Arm of the study.

[3] = system: CYP (cytochrome P450 enzymes); assay: CYP inhibition in vitro
[4] = Arm 1 (reference): single agents together
[5] = Arm 2 (FDC02) vs reference (Arm 1)
[6] = Arm 3 (FDC04) vs reference (Arm 1)
[7] = Arm 4 (FDC01) vs reference (Arm 1)
[8] = Arm 1 (reference): single agents together, SMV 100-mg capsule, ODV 50-mg tablet, two Compound (III) 400-mg tablets
[9] = Arm 2: FDC02, SMV 100 mg + ODV 50 mg (ODV/HPMC-AS L 1/1 w/w) + Compound (III) 800 mg
[10] = Arm 3: FDC04, SMV 100 mg + ODV 50 mg (ODV/HPMC-AS L 1/3 w/w) + Compound (III) 800 mg
[11] = Arm 4: FDC01, SMV 100 mg + ODV 50 mg (copovidone and poloxamers) + Compound (III) 800 mg

Row | Compound | t1/2term (mean ± SD) [2, 4] [h] | Least Square Means Ratio, AUClast [2, 5] [%] | Least Square Means Ratio, Cmax [2, 5] [%] | t1/2term (mean ± SD) ([2]; Arm 2: FDC02) [h] | Least Square Means Ratio, AUClast [2, 6] [%] | Least Square Means Ratio, Cmax [2, 6] [%] | t1/2term (mean ± SD) ([2]; Arm 3: FDC04) [h] | Least Square Means Ratio, AUClast [2, 7] [%] | Least Square Means Ratio, Cmax [2, 7] [%] | t1/2term (mean ± SD) ([2]; Arm 4: FDC01) [h] | Cmax [2, 8] [µg/mL] | AUC(0-t) [2, 4] [µg·h/mL] | AUC(0-inf) [2, 4] [µg·h/mL] | Tmax [2, 4] [h] | Cmax [2, 9] [µg/mL] | AUC(0-t) ([2]; Arm 2: FDC02) [µg·h/mL] | AUC(0-inf) ([2]; Arm 2: FDC02) [µg·h/mL] | Tmax ([2]; Arm 2: FDC02) [h] | Cmax [2, 10] [µg/mL] | AUC(0-t) ([2]; Arm 3: FDC04) [µg·h/mL] | other results
1 | C[C@]1(O)[C@H](n2ccc(=O)[nH]c2=O)O[C@](F)(CO)[C@H]1O [Compound A-1] | 19.6 ± 2.7 | 118.54 | 133.00 | 20.5 ± 3.3 | 121.29 | 119.83 | 20.2 ± 3.5 | 120.45 | 121.37 | 18.3 ± 3.5 | 0.498 ± 0.154 | 3.91 ± 1.15 | 4.53 ± 1.8 | 4 | 0.681 ± 0.268 | 4.68 ± 1.55 | 4.37 ± 1.34 | 4 | 0.598 ± 0.192 | 4.71 ± 1.31 | increase of exposure with dose [1]: less than proportionally; AUC(0-inf) ([2]; Arm 3: FDC04): 5.38 ± 1.56 µg·h/mL; Tmax ([2]; Arm 3: FDC04): 4 h; Cmax [2, 11]: 0.607 ± 0.208 µg/mL; AUC(0-t) ([2]; Arm 4: FDC01): 4.69 ± 1.42 µg·h/mL; AUC(0-inf) ([2]; Arm 4: FDC01): 4.55 ± 0.787 µg·h/mL; Tmax ([2]; Arm 4: FDC01): 4 h; IC50 [3]: > 40 µM
2 | C[C@H](NP(=O)(O)OC[C@@]1(F)O[C@@H](n2ccc(=O)[nH]c2=O)[C@](C)(O)[C@@H]1O)C(=O)O [Compound A-3] | 2.6 ± 1.4 | 103.24 | 102.81 | 2.3 ± 0.6 | 115.78 | 119.82 | 2.9 ± 1.5 | 116.82 | 123.77 | 2.5 ± 0.7 | 0.163 ± 0.0618 | 0.8 ± 0.307 | 0.823 ± 0.311 | 3 | 0.163 ± 0.0452 | 0.79 ± 0.157 | 0.817 ± 0.133 | 3 | 0.189 ± 0.0497 | 0.895 ± 0.223 | Least Square Means Ratio, AUC∞ [2, 5]: 104.40%; Least Square Means Ratio, AUC∞ [2, 6]: 114.92%; Least Square Means Ratio, AUC∞ [2, 7]: 115.62%; AUC(0-inf) ([2]; Arm 3: FDC04): 0.914 ± 0.226 µg·h/mL; Tmax ([2]; Arm 3: FDC04): 3.5 h; Cmax [2, 11]: 0.197 ± 0.0621 µg/mL; AUC(0-t) ([2]; Arm 4: FDC01): 0.909 ± 0.244 µg·h/mL; AUC(0-inf) ([2]; Arm 4: FDC01): 0.926 ± 0.245 µg·h/mL; Tmax ([2]; Arm 4: FDC01): 4 h; IC50 [3]: > 48 µM
